Laboratory results from BindingDB's records for doi:10.1111/j.1747-0285.2009.00884.x (Pfizer, 2009).
Where “and” joins values, the source holds several entries; their conditions need not be identical. Identical values can stand only once.

What was measured:
[1] = target: T1, Mitogen-activated protein kinase 14 (Homo sapiens, UniProt Q16539); assay: Active p38alpha cascade assay; settings: pH 7.5; 25 °C
Experimental: The reaction was run for 15 min atroom temperature. […] Under such

[2] = target: T1, Mitogen-activated protein kinase 14; assay: Unactivated p38alpha cascade assay; settings: pH 7.5; 25 °C
Experimental: Binding of inhibitors to unactivated p38a that leads to decreasedphosphorylation of p38alpha by MKK6 was determined by measuringthe activated p38alpha activity in the assay mixture with andwithout inhibitors. In a 20-lL reaction mixture containing 50 mMHepes, pH 7.5, 1 mM EGTA, 10 mM MgCl2, 0.01% (w / v) Brij35 and 200 µM DTT, unactivated p38a (2 nM) was preincubatedwith inhibitors at various concentrations for 30 min at roomtemperature. Ten microliters of 1 mM ATP and 1 nM active MKK6were then introduced to initiate p38a activation. The reaction wasrun at room temperature for 15 min. The mixture was thenimmediately diluted 100-fold so that the inhibitor concentrationwas reduced by 2 orders of magnitude and residual inhibitoryeffect was minimized. The reaction product, active p38alpha, wasthen calculated based on its catalytic activity to activate MK2 asdescribed in Active p38a cascade assay section.

T1 sequence (Q16539 whole entry): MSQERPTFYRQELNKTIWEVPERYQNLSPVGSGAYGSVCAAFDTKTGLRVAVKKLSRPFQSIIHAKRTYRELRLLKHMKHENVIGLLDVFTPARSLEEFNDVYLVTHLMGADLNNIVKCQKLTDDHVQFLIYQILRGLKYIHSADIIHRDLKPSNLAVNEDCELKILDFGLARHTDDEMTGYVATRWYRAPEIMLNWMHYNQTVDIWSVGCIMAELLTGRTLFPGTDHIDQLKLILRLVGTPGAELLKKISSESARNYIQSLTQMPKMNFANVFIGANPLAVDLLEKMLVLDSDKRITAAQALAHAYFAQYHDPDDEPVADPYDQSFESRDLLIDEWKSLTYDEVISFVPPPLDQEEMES

| Structure (SMILES) | IC50 [1] | IC50 [2] |
| --- | --- | --- |
| CC(=O)c1cc(C(=O)NCc2ccc(-n3nc(C(C)(C)C)cc3NC(=O)Nc3cccc4ccccc34)cc2)ccc1C [(5a) BIRB796] | 933 nM | 8 nM |
| CC(=O)c1cc(C(=O)NC(O)(NCc2ccc(-n3nc(C(C)(C)C)cc3NC(=O)Nc3cccc4ccccc34)cc2)C2CCCC2)ccc1C (stereo not given) [(5b) BIRB796] | 1110 nM | 26 nM |
| Cc1ccc(C(=O)NCc2ccc(-n3nc(C(C)(C)C)cc3NC(=O)Nc3cccc4ccccc34)cc2)cc1C(=O)O [(7a) BIRB796] | 691 nM | 11 nM |
| Cc1ccc(C(=O)NC(O)(NCc2ccc(-n3nc(C(C)(C)C)cc3NC(=O)Nc3cccc4ccccc34)cc2)C2CCCC2)cc1C(=O)O (stereo not given) [(7b) BIRB796] | 1130 nM | 36 nM |
| Cc1cc(C(=O)NCc2ccc(-n3nc(C(C)(C)C)cc3NC(=O)Nc3cccc4ccccc34)cc2)ccc1C(=O)O [(8a) BIRB796] | 393 nM and 664 nM | 11 nM and 25 nM |
| Cc1ccc(C(=O)NC(C)(O)NCc2ccc(-n3nc(C(C)(C)C)cc3NC(=O)Nc3ccccc3)cc2)cc1C(=O)O (stereo not given) [(9a) BIRB796] | 376 nM | 6 nM |
| Cc1ccc(C(=O)NC(O)(NC(=O)NCc2ccc(-n3nc(C(C)(C)C)cc3NC(=O)Nc3ccccc3)cc2)C2CCCC2)cc1C(=O)O (stereo not given) [(9b) BIRB796] | 810 nM | 22 nM |
| Cc1cc(C(=O)NC(C)(O)NCc2ccc(-n3nc(C(C)(C)C)cc3NC(=O)Nc3ccccc3)cc2)ccc1C(=O)O (stereo not given) [(10a) BIRB796] | 261 nM | 7 nM |
| Cc1ccc(C(=O)NC(=O)NCc2ccc(-n3nc(C(C)(C)C)cc3NC(=O)Nc3ccccc3)cc2)cc1C(=O)O [(11a) BIRB796] | 1080 nM | 11 nM |
| Cc1ccc(C(=O)[n+]2cccc(C(=O)NCc3ccc(-n4nc(C(C)(C)C)cc4NC(=O)Nc4ccccc4)cc3)c2)cc1C(=O)O [(11b) BIRB796] | 1220 nM | 35 nM |
| Cc1cc(C(=O)NC(=O)NCc2ccc(-n3nc(C(C)(C)C)cc3NC(=O)Nc3ccccc3)cc2)ccc1C(=O)O [(12a) BIRB796] | 1590 nM | 53 nM |
| Cc1cc(C(=O)[n+]2cccc(C(=O)NCc3ccc(-n4nc(C(C)(C)C)cc4NC(=O)Nc4ccccc4)cc3)c2)ccc1C(=O)O [(12b) BIRB796] | 1470 nM | 62 nM |
| O=S1(=O)N=c2ccc3c4c(c5ccccc5c(c24)O1)OS(=O)(=O)N=3 [CP-232880] | 2100 nM | 1030 nM |
| Clc1ccc(-c2c[nH]c(-c3cc4ccccc4cn3)n2)cc1 [PF-00215924] | 1.8 nM | 110 nM |
| Brc1ccc(-c2c[nH]c(-c3cc4ccccc4cn3)n2)cc1 [PF-00215937] | 1900 nM and > 12500 nM | – |
| Clc1cccc(-c2c[nH]c(-c3cc4ccccc4cn3)n2)c1 [PF-00240292] | > 12500 nM | 2300 nM |
| Brc1ccc(-c2c[nH]c(-c3cc4ccccc4cn3)n2)cc1 [PF-04764755] | 2950 nM | 320 nM |
| NCCC(=O)c1cccc(Oc2cccc(C(=O)CCN)c2)c1 [UK-146015] | > 12500 nM | 6000 nM |
